test system: barnyardgrass (Echinochloa crus-galli); assay: Test A preemergence, barnyardgrass; type: in vivo; conditions: 125 g ai/ha, 0 to 100 scale
Source text: (§1) Seeds of plant species selected from barnyardgrass (Echinochloa crus-galli), crabgrass (large crabgrass, Digitaria sanguinalis), kochia (Kochia scoparia), ragweed (common ragweed, Ambrosia elatior), morningglory (Ipomoea spp.), velvetleaf (Abutilon theophrasti), ryegrass, It. (Italian ryegrass, Lolium multiflorum), foxtail, giant (giant foxtail, Setaria faberii), wheat (Triticum aestivum), corn (Zea mays), and pigweed (Amaranthus retroflexus), were planted into a blend of loam soil and sand and treated preemergence with a directed soil spray using test chemicals formulated in a non-phytotoxic solvent mixture which included a surfactant. At the same time, plants selected from these crop and weed species and also blackgrass (Alopecurus myosuroides), and galium (catchweed bedstraw, Galium aparine), were planted in pots containing the same blend of loam soil and sand and treated with postemergence applications of test chemicals formulated in the same manner. Plants ranged in height from 2 to 10 cm and were in the one- to two-leaf stage for the postemergence treatment. Treated plants and untreated controls were maintained in a greenhouse for approximately 10 d, after which time all treated plants were compared to untreated controls and visually evaluated for injury. Plant response ratings, summarized in Table A, are based on a 0 to 100 scale where 0 is no effect and 100 is complete control. A dash (-) response means no test result.

| Compound | Plant response rating, Barnyardgrass |
| --- | --- |
| O=C1NCC(C#Cc2ccc(F)cc2)C1C(=O)Nc1ccccc1F (stereo not drawn) [Compound 19] | 0 |

same assay, conditions: 500 g ai/ha, 0 to 100 scale

| Compound | Plant response rating, Barnyardgrass |
| --- | --- |
| O=C1NCC(C#Cc2ccc(F)cc2)C1C(=O)Nc1ccccc1F (stereo not drawn) [Compound 19] | 50 |

test system: kochia (Kochia scoparia); assay: Test A preemergence, kochia; type: in vivo; conditions: 125 g ai/ha, 0 to 100 scale
Source text: as §1

| Compound | Plant response rating, Kochia |
| --- | --- |
| O=C1NCC(C#Cc2ccc(F)cc2)C1C(=O)Nc1ccccc1F (stereo not drawn) [Compound 19] | 0 |

same assay, conditions: 500 g ai/ha, 0 to 100 scale

| Compound | Plant response rating, Kochia |
| --- | --- |
| O=C1NCC(C#Cc2ccc(F)cc2)C1C(=O)Nc1ccccc1F (stereo not drawn) [Compound 19] | 0 |

test system: ragweed (common ragweed, Ambrosia elatior); assay: Test A preemergence, ragweed; type: in vivo; conditions: 125 g ai/ha, 0 to 100 scale
Source text: as §1

| Compound | Plant response rating, Ragweed |
| --- | --- |
| O=C1NCC(C#Cc2ccc(F)cc2)C1C(=O)Nc1ccccc1F (stereo not drawn) [Compound 19] | 0 |

same assay, conditions: 500 g ai/ha, 0 to 100 scale

| Compound | Plant response rating, Ragweed |
| --- | --- |
| O=C1NCC(C#Cc2ccc(F)cc2)C1C(=O)Nc1ccccc1F (stereo not drawn) [Compound 19] | 0 |

test system: ryegrass, It. (Italian ryegrass, Lolium multiflorum); assay: Test A preemergence, ryegrass, It.; type: in vivo; conditions: 125 g ai/ha, 0 to 100 scale
Source text: as §1

| Compound | Plant response rating, Ryegrass, It. |
| --- | --- |
| O=C1NCC(C#Cc2ccc(F)cc2)C1C(=O)Nc1ccccc1F (stereo not drawn) [Compound 19] | 0 |

same assay, conditions: 500 g ai/ha, 0 to 100 scale

| Compound | Plant response rating, Ryegrass, It. |
| --- | --- |
| O=C1NCC(C#Cc2ccc(F)cc2)C1C(=O)Nc1ccccc1F (stereo not drawn) [Compound 19] | 0 |

test system: foxtail, giant (giant foxtail, Setaria faberii); assay: Test A preemergence, foxtail, giant; type: in vivo; conditions: 125 g ai/ha, 0 to 100 scale
Source text: as §1

| Compound | Plant response rating, Foxtail, Giant |
| --- | --- |
| O=C1NCC(C#Cc2ccc(F)cc2)C1C(=O)Nc1ccccc1F (stereo not drawn) [Compound 19] | 0 |

same assay, conditions: 500 g ai/ha, 0 to 100 scale

| Compound | Plant response rating, Foxtail, Giant |
| --- | --- |
| O=C1NCC(C#Cc2ccc(F)cc2)C1C(=O)Nc1ccccc1F (stereo not drawn) [Compound 19] | 20 |

test system: pigweed (Amaranthus retroflexus); assay: Test A preemergence, pigweed; type: in vivo; conditions: 125 g ai/ha, 0 to 100 scale
Source text: as §1

| Compound | Plant response rating, Pigweed |
| --- | --- |
| O=C1NCC(C#Cc2ccc(F)cc2)C1C(=O)Nc1ccccc1F (stereo not drawn) [Compound 19] | 0 |

same assay, conditions: 500 g ai/ha, 0 to 100 scale

| Compound | Plant response rating, Pigweed |
| --- | --- |
| O=C1NCC(C#Cc2ccc(F)cc2)C1C(=O)Nc1ccccc1F (stereo not drawn) [Compound 19] | 0 |

test system: barnyardgrass (Echinochloa crus-galli); assay: Test A postemergence, barnyardgrass; type: in vivo; conditions: 125 g ai/ha, 0 to 100 scale
Source text: as §1

| Compound | Plant response rating, Barnyardgrass |
| --- | --- |
| O=C1NCC(C#Cc2ccc(F)cc2)C1C(=O)Nc1ccccc1F (stereo not drawn) [Compound 19] | 0 |

same assay, conditions: 500 g ai/ha, 0 to 100 scale

| Compound | Plant response rating, Barnyardgrass |
| --- | --- |
| O=C1NCC(C#Cc2ccc(F)cc2)C1C(=O)Nc1ccccc1F (stereo not drawn) [Compound 19] | 40 |

test system: kochia (Kochia scoparia); assay: Test A postemergence, kochia; type: in vivo; conditions: 125 g ai/ha, 0 to 100 scale
Source text: as §1

| Compound | Plant response rating, Kochia |
| --- | --- |
| O=C1NCC(C#Cc2ccc(F)cc2)C1C(=O)Nc1ccccc1F (stereo not drawn) [Compound 19] | 0 |

same assay, conditions: 500 g ai/ha, 0 to 100 scale

| Compound | Plant response rating, Kochia |
| --- | --- |
| O=C1NCC(C#Cc2ccc(F)cc2)C1C(=O)Nc1ccccc1F (stereo not drawn) [Compound 19] | 0 |

test system: ragweed (common ragweed, Ambrosia elatior); assay: Test A postemergence, ragweed; type: in vivo; conditions: 125 g ai/ha, 0 to 100 scale
Source text: as §1

| Compound | Plant response rating, Ragweed |
| --- | --- |
| O=C1NCC(C#Cc2ccc(F)cc2)C1C(=O)Nc1ccccc1F (stereo not drawn) [Compound 19] | 0 |

same assay, conditions: 500 g ai/ha, 0 to 100 scale

| Compound | Plant response rating, Ragweed |
| --- | --- |
| O=C1NCC(C#Cc2ccc(F)cc2)C1C(=O)Nc1ccccc1F (stereo not drawn) [Compound 19] | 0 |

test system: ryegrass, It. (Italian ryegrass, Lolium multiflorum); assay: Test A postemergence, ryegrass, It.; type: in vivo; conditions: 125 g ai/ha, 0 to 100 scale
Source text: as §1

| Compound | Plant response rating, Ryegrass, It. |
| --- | --- |
| O=C1NCC(C#Cc2ccc(F)cc2)C1C(=O)Nc1ccccc1F (stereo not drawn) [Compound 19] | 0 |

same assay, conditions: 500 g ai/ha, 0 to 100 scale

| Compound | Plant response rating, Ryegrass, It. |
| --- | --- |
| O=C1NCC(C#Cc2ccc(F)cc2)C1C(=O)Nc1ccccc1F (stereo not drawn) [Compound 19] | 0 |

test system: foxtail, giant (giant foxtail, Setaria faberii); assay: Test A postemergence, foxtail, giant; type: in vivo; conditions: 125 g ai/ha, 0 to 100 scale
Source text: as §1

| Compound | Plant response rating, Foxtail, Giant |
| --- | --- |
| O=C1NCC(C#Cc2ccc(F)cc2)C1C(=O)Nc1ccccc1F (stereo not drawn) [Compound 19] | 0 |

same assay, conditions: 500 g ai/ha, 0 to 100 scale

| Compound | Plant response rating, Foxtail, Giant |
| --- | --- |
| O=C1NCC(C#Cc2ccc(F)cc2)C1C(=O)Nc1ccccc1F (stereo not drawn) [Compound 19] | 20 |

test system: wheat (Triticum aestivum); assay: Test A postemergence, wheat; type: in vivo; conditions: 125 g ai/ha, 0 to 100 scale
Source text: as §1

| Compound | Plant response rating, Wheat |
| --- | --- |
| O=C1NCC(C#Cc2ccc(F)cc2)C1C(=O)Nc1ccccc1F (stereo not drawn) [Compound 19] | 0 |

same assay, conditions: 500 g ai/ha, 0 to 100 scale

| Compound | Plant response rating, Wheat |
| --- | --- |
| O=C1NCC(C#Cc2ccc(F)cc2)C1C(=O)Nc1ccccc1F (stereo not drawn) [Compound 19] | 0 |

test system: corn (Zea mays); assay: Test A postemergence, corn; type: in vivo; conditions: 125 g ai/ha, 0 to 100 scale
Source text: as §1

| Compound | Plant response rating, Corn |
| --- | --- |
| O=C1NCC(C#Cc2ccc(F)cc2)C1C(=O)Nc1ccccc1F (stereo not drawn) [Compound 19] | 0 |

same assay, conditions: 500 g ai/ha, 0 to 100 scale

| Compound | Plant response rating, Corn |
| --- | --- |
| O=C1NCC(C#Cc2ccc(F)cc2)C1C(=O)Nc1ccccc1F (stereo not drawn) [Compound 19] | 0 |

test system: pigweed (Amaranthus retroflexus); assay: Test A postemergence, pigweed; type: in vivo; conditions: 125 g ai/ha, 0 to 100 scale
Source text: as §1

| Compound | Plant response rating, Pigweed |
| --- | --- |
| O=C1NCC(C#Cc2ccc(F)cc2)C1C(=O)Nc1ccccc1F (stereo not drawn) [Compound 19] | 0 |

same assay, conditions: 500 g ai/ha, 0 to 100 scale

| Compound | Plant response rating, Pigweed |
| --- | --- |
| O=C1NCC(C#Cc2ccc(F)cc2)C1C(=O)Nc1ccccc1F (stereo not drawn) [Compound 19] | 0 |

test system: blackgrass (Alopecurus myosuroides); assay: Test A postemergence, blackgrass; type: in vivo; conditions: 125 g ai/ha, 0 to 100 scale
Source text: as §1

| Compound | Plant response rating, Blackgrass |
| --- | --- |
| O=C1NCC(C#Cc2ccc(F)cc2)C1C(=O)Nc1ccccc1F (stereo not drawn) [Compound 19] | 0 |

same assay, conditions: 500 g ai/ha, 0 to 100 scale

| Compound | Plant response rating, Blackgrass |
| --- | --- |
| O=C1NCC(C#Cc2ccc(F)cc2)C1C(=O)Nc1ccccc1F (stereo not drawn) [Compound 19] | 0 |

test system: galium (catchweed bedstraw, Galium aparine); assay: Test A postemergence, galium; type: in vivo; conditions: 125 g ai/ha, 0 to 100 scale
Source text: as §1

| Compound | Plant response rating, Galium |
| --- | --- |
| O=C1NCC(C#Cc2ccc(F)cc2)C1C(=O)Nc1ccccc1F (stereo not drawn) [Compound 19] | 0 |

same assay, conditions: 500 g ai/ha, 0 to 100 scale

| Compound | Plant response rating, Galium |
| --- | --- |
| O=C1NCC(C#Cc2ccc(F)cc2)C1C(=O)Nc1ccccc1F (stereo not drawn) [Compound 19] | 0 |

test system: barnyardgrass (Echinochloa crus-galli); assay: Test B flooded paddy test, barnyardgrass; type: in vivo; conditions: Flood, 250 g ai/ha; scale of 0 to 100 where 0 is no effect and 100 is complete control; 13 to 15 d
Protocol: (§2) Plant species in the flooded paddy test selected from rice (Oryza sativa), sedge, umbrella (small-flower umbrella sedge, Cyperus difformis), ducksalad (Heteranthera limosa), and barnyardgrass (Echinochloa crus-galli) were grown to the 2-leaf stage for testing. At time of treatment, test pots were flooded to 3 cm above the soil surface, treated by application of test compounds directly to the paddy water, and then maintained at that water depth for the duration of the test. Treated plants and controls were maintained in a greenhouse for 13 to 15 d, after which time all species were compared to controls and visually evaluated. Plant response ratings, summarized in Table B, are based on a scale of 0 to 100 where 0 is no effect and 100 is complete control. A dash (-) response means no test result.

| Compound | Plant response rating, Barnyardgrass |
| --- | --- |
| O=C1NCC(C#Cc2ccc(F)cc2)C1C(=O)Nc1ccccc1F (stereo not drawn) [Compound 19] | 0 |

test system: ducksalad (Heteranthera limosa); assay: Test B flooded paddy test, ducksalad; type: in vivo; conditions: Flood, 250 g ai/ha; scale of 0 to 100 where 0 is no effect and 100 is complete control; 13 to 15 d
Protocol: as §2

| Compound | Plant response rating, Ducksalad |
| --- | --- |
| O=C1NCC(C#Cc2ccc(F)cc2)C1C(=O)Nc1ccccc1F (stereo not drawn) [Compound 19] | 0 |

test system: rice (Oryza sativa); assay: Test B flooded paddy test, rice; type: in vivo; conditions: Flood, 250 g ai/ha; scale of 0 to 100 where 0 is no effect and 100 is complete control; 13 to 15 d
Protocol: as §2

| Compound | Plant response rating, Rice |
| --- | --- |
| O=C1NCC(C#Cc2ccc(F)cc2)C1C(=O)Nc1ccccc1F (stereo not drawn) [Compound 19] | 0 |

test system: sedge, umbrella (small-flower umbrella sedge, Cyperus difformis); assay: Test B flooded paddy test, sedge, umbrella; type: in vivo; conditions: Flood, 250 g ai/ha; scale of 0 to 100 where 0 is no effect and 100 is complete control; 13 to 15 d
Protocol: as §2

| Compound | Plant response rating, Sedge, Umbrella |
| --- | --- |
| O=C1NCC(C#Cc2ccc(F)cc2)C1C(=O)Nc1ccccc1F (stereo not drawn) [Compound 19] | 0 |

Reference: patent publication US10906873B2, “Substituted cyclic amides as herbicides” (FMC Corporation, priority 2015, dated 2021)
